Source: publication PMC11213902, “Enhancing hepatoprotective action: oxyberberine amorphous solid dispersion system targeting TLR4” (Scientific Reports, 2024)

Columns and labels:
[1] = tested on: LPS/D-GalN-induced acute liver injury (ALI) mice; experiment: LPS/D-GalN-induced ALI, liver function analysis (serum ALT, AST); assay type: in vivo, C57BL/6 mice; settings: gavage once daily 7 days; OBB-ASDs 25 and 50 mg/kg, OBB-SUS 50 mg/kg, Silymarin 100 mg/kg; P < 0.05
Protocol: (§1) All mice were randomly divided into six groups (n = 8): normal control group (NC); LPS/D-GalN group; OBB-ASDs25 group (25 mg/kg OBB-HPMCAS); OBB-ASDs50 group (50 mg/kg OBB-HPMCAS); OBB-SUS group (50 mg/kg OBB suspension); Silymarin group (100 mg/kg Silymarin). The drug dosage design for the ALI trial was primarily based on our previous research findings[25] and preclinical experiments. Except for NC and LPS/D-GalN groups, all other groups of mice were respectively pretreated by gavage with the corresponding dose of OBB-ASDs, OBB-SUS, and Silymarin once daily for 7 consecutive days. Mice in NC and LPS/D-GalN group were given the same volume of saline by intragastric administration. At 2 h postdose, all mice (except the NC group) were exposed to 30 μg/kg LPS and 600 mg/kg D-GalN. Mice in NC group were received the same volume of PBS intraperitoneally. After challenging for 6 h, blood samples were collected from the eyeball vein under 2% sodium pentobarbital anesthesia. Subsequently, the liver was immediately dissected, weighed, washed with saline, and stored at − 80 °C until further analyzed.
After centrifugated at 3000 g for 10 min, serum was acquired and the activities of ALT and AST were measured using commercial kits (Nanjing Jiancheng, China) following the manufacturer’s instructions.

[2] = tested on: hepatic inflammatory mediators and oxidative stress in ALI mice; experiment: LPS/D-GalN-induced ALI, liver biochemical assessment (oxidative and inflammatory stress); assay type: in vivo, C57BL/6 mice
Protocol: as §1
Fresh liver tissues were homogenized in Tris–HCl buffer (pH 7.4) and centrifuged at 4500 rpm for 15 min (4 °C). Subsequently, the supernatants were collected and assayed for MDA, SOD, GSH, MCP-1, TNF-α, IL-1β, and IL-6 using its specific commercially available assay kit following the manufacturer’s instructions.

[3] = tested on: LPS/D-GalN-induced acute liver injury (ALI) mice; experiment: LPS/D-GalN-induced ALI, liver pathological changes (H&E); assay type: in vivo, C57BL/6 mice; settings: gavage once daily 7 days; OBB-ASDs 25 and 50 mg/kg, OBB-SUS 50 mg/kg, Silymarin 100 mg/kg
Protocol: as §1
Liver tissue pathology was evaluated by regular hematoxylin–eosin (H&E) staining. […] According to the scoring system, liver injury was evaluated by pathologists blinded to the experimental protocol. Scores were determined as Dkhil et al. previously described (Table 3)[26].

kidneys = experiment: Chronic nephrotoxicity assessment (kidney HE staining); assay type: in vivo, C57BL/6 mice; settings: mice, oral, 50 mg/kg, continuous administration for 4, 8, and 16 weeks
Protocol: Male C57BL/6 mice were orally administered OBB and OBB-HPMCAS at a dose of 50 mg/kg for 16 weeks. Kidney tissues were collected at 4, 8, and 16 weeks for HE staining to observe the long-term effects of OBB administration on the kidneys.

[4] = In vivo oral bioavailability study; set-up: species or system SD rats; settings: male, rat plasma OBB, 100 mg/kg, n = 6, mean ± SD
Protocol: Male SD rats weighing 220 ± 15 g were obtained from the Guangdong Medical Laboratory Animal Center (GDMLAC, Guangzhou, China). After fasting overnight, six rats were taken in each group, based on respective treatment at a dose of 100 mg/kg each: OBB-HPMCAS and OBB-SUS (OBB suspension). After isoflurane anesthesia, blood samples were collected from the posterior orbital venous plexus at 5, 10, 20, 30, 60, 90, 120, 180, 240, 360, 480, 720, and 1440 min, respectively. After centrifugation (12,000 rpm, 5 min), plasma was collected and stored at − 80 °C for further analysis. For deproteinization of plasma, ethyl acetate (200 μL) was added to the mixture and vortexed for 3 min. After centrifugation for […], the supernatant was collected and vacuum dried at 40 °C, − 0.8 Mpa. The residue was redissolved with 100 μL methanol/water (50:50, v/v). After centrifugation (12,000 rpm, 10 min), the supernatant was analyzed by LC–MS/MS system. Pharmacokinetic parameters were calculated based on the plasma pharmacokinetics of OBB. The peak concentration (Cmax), time of the peak concentration (Tmax), half-life (T1/2), and area under the profile from time 0 to 24 h (AUC0-24), were calculated using a DAS software (Version 2.0; Drug And Statistics, Shanghai, China, RRID: SCR_022672).

[5] = tested on: mRNA expression of TLR4, MyD88, IL-1β, and IL-6; experiment: LPS/D-GalN-induced ALI, quantitative PCR of liver tissues; assay type: in vivo, C57BL/6 mice; settings: P < 0.01
Protocol: as §1, with “-” for “−”, “analyzed. […] Quantitative PCR was performed on an Applied Biosystems 7500 Real-Time system (ABI 7500, RRID: SCR_018051). Primer sequences against mouse cDNAs used in qPCR were listed as follows: TLR4, [NT] (reverse); MyD88, […] (reverse); IL-6, [NT] (reverse); IL-1β, [NT] (reverse); and GAPDH, […] (reverse).” for “analyzed.”

[6] = Preliminary experiment: absorption and oral bioavailability; assay type: in vivo; settings: pure OBB
[7] = tested on: ALI challenged by LPS/D-GalN; set-up: method as in PMID 35691465; settings: previous research ref 8; cited from earlier work
[8] = tested on: non-alcoholic fatty liver disease (NAFLD); set-up: method as in PMID 33831691; settings: cited from earlier work
[9] = In vitro dissolution study (paddle method); assay type: physicochemical; settings: 0.3% SDS medium, 37 °C
Protocol: The dissolution Apparatus II (stirring paddle method) was utilized for the in vitro dissolution studies at a rotation speed of 100 ± 1 rpm in 250 mL 0.3% (w/v) sodium dodecyl sulfate (SDS) aqueous solution medium with a ZRS-8G dissolution tester (Tianjin Haiyida Technology Co., Ltd, Tianjin, China). All experiments were performed at 37 ± 0.5 °C. The OBB-ASDs samples were weighed to be equivalent to 2 mg of OBB. At predetermined time points (0, 5, 10, 20, 30, 60, and 90 min), 0.5 mL of sample solution was taken out and replaced with the same volume of fresh SDS solution (37 ± 0.5 °C). After being filtered through a 0.22 μm syringe filter, the filtered samples were collected and analyzed by HPLC.

[10] = set-up: method as in PMID 30599908; settings: cited from earlier work
[11] = compared with the LPS/D-GalN group
[12] = pretreatment 7 days, OBB-ASDs 25 and 50 mg/kg, OBB-SUS 50 mg/kg, Silymarin 100 mg/kg, vs LPS/D-GalN group
[13] = higher in LPS/D-GalN challenged mice
[14] = qRT-PCR, elevation after LPS/D-GalN exposure

COc1ccc2cc3n(c(=O)c2c1OC)CCc1cc2c(cc1-3)OCO2 [OBB, 8-Oxyberberine]
serum ALT level vs LPS/D-GalN group [1]: extremely reduced | serum AST level vs LPS/D-GalN group [1]: extremely reduced | hepatic CAT content [2, 11]: increasing | hepatic GSH content [2, 11]: increasing | hepatic MDA level [2, 11]: dramatically suppressed | hepatic SOD content [2, 11]: increasing | IL-1β level in liver [2, 12]: largely decreased | IL-6 level in liver [2, 12]: largely decreased | MCP-1 level in liver [2, 12]: largely decreased | TNF-α level in liver [2, 12]: largely decreased | liver tissue injury (H&E staining) vs model group [3]: conspicuously mitigated | kidney damage (HE staining) (kidneys): no significant kidney damage | Cmax [4]: 169 ± 18.6 ng/mL | Tmax [4]: 4.67 ± 0.52 h | half-life [4]: 2.99 ± 0.42 h | AUC(0-t) ([4]; read-out: AUC0-24): 1260 ± 130 ng·h/mL | MyD88 mRNA expression (real-time PCR) [5, 13]: restored | TLR4 mRNA expression (real-time PCR) [5, 13]: restored | IL-1β mRNA expression level in liver [5, 14]: markedly restore | IL-6 mRNA expression level in liver [5, 14]: markedly restore | absorption and oral bioavailability [6]: poor | effect on ALI challenged by LPS/D-GalN [7]: effectively attenuated | effect on non-alcoholic fatty liver disease (NAFLD) [8]: pronounced therapeutic effect | release / dissolution rate, pure OBB compared with formulations [9]: significantly slower | solubility in water [10]: poorly soluble in water
